Read-outs that look alike come from different tables or passages of the source. Blank lines part the entries; values can stand above or below the compound they belong to. Peptide text beside a SMILES is read from it. * marks the point of attachment. Cbz = O=C(OCc1ccccc1)*
Assays:
[1] = biological target: T1, TDP-43 (Mus musculus, UniProt Q921F2); assay: InCell Western (ICW) drug screen for TDP-43 levels in N9 cells; format: cell-based; settings: for % TDP43 level: N9 cells treated 24 hours, DMSO vehicle control = 100
T1 construct: N9 cells expressing endogenous TDP-43 were treated with various concentrations of B10; endogenous in cells; host or cells: N9 mouse microglial cells
Description: To optimize the ICW technique for screening TDP-43 targeting drugs, N9 cells were seeded in a 96-well plate and processed for ICW by using various dilution of TDP-43 antibody.
For drug screening, N9 cells were treated with a panel of candidate drug molecules for 24 hours and the effect on TDP-43 levels was analyzed using the InCell Western assay.
To optimize TDP-43 targeting ICW, N9 cells were seeded in a 96-well plate and probed with different dilutions of TDP-43 antibody as previously described (Jinwal and Dickey, 2011). For the identification of candidate drug molecules, N9 cells were treated with an array of drugs for 24 hours and processed for ICW (Jinwal and Dickey, 2011). In brief, cells were fixed, washed with PBS and incubated in blocking buffer. Cells were then incubated in primary antibody to TDP-43 (1:1000) and GAPDH (1:3000) for overnight. After washing with 0.2% Tween-20 PBS, cells were incubated with fluorescently tagged secondary antibodies for 1 hour and 30 minutes. Fluorescence intensity was then recorded and quantified using the Odyssey Infrared Imaging System (LI-COR). ICW experiments were performed in duplicate.

[2] = tested on: ubiquitinated proteins; assay: Western blot of ubiquitinated proteins in HEK293 cell samples; format: cell-based; settings: HEK293 samples from FIG. 4A, 24 hours, ubiquitin antibody
Description: (§1) HEK293 cells were treated with 3 and 10 μM B10 for 24 hours. An equivalent volume of DMSO was used for control treatments. […] Briefly, cells were lysed in Mammalian-Protein Extraction Reagent (M-PER; Pierce, Rockford, Ill.) containing 1× protease inhibitor mixture (Calbiochem, Billerica, Mass.), 1 mM phenylmethylsulfonyl fluoride (PMSF) and 1× phosphatase inhibitor I and II cocktails (Sigma). Protein concentration was determined using the Coomassie (Bradford) Protein Assay Kit (Pierce). Samples were analyzed using TDP-43, FUS, and GAPDH antibodies by Western blotting. Drug treatment experiments were performed in triplicate. For ubiquitinated protein analysis upon MG132 treatment, ubiquitin antibody (Santa Cruz Biotechnology) was used. Statistical analysis was performed using Microsoft Excel.

[3] = tested on: rats; settings: pre-treatment prior to administration of B10; cited from earlier work
[4] = biological target: T2, C25 mutant of TDP-43 (Homo sapiens, UniProt Q13148); assay: Immunofluorescence of cytoplasmic C25 mutant TDP-43 in HEK293 cells; format: cell-based; settings: 3 μM, 24 hours
T2 construct: the C25 cleaved fragment that localizes to the cytosol; expressed in transfected cells; host or cells: HEK293
Description: 24 hours after transfection, the medium was replaced and cells were treated with either DMSO or 3 μM B10 for 24 hours. […] Following three washes in PBS, cells were incubated in blocking buffer (1% BSA, 0.1% Tween-20 in PBS) for one hour. A mouse monoclonal antibody to the Myc tag at a dilution of 1:400 was applied for 1 hour. After three washes in PBS, cells were incubated with an Alexa488 tagged goat anti-mouse IgG secondary antibody at 1:800 for 1 hour. […] Coverslips were mounted on slides using Fluoromount G. Imaging was performed with a Zeiss AxioVision imager.

[5] = biological target: T3, endogenous TDP-43 (Mus musculus, UniProt Q921F2); assay: Western blotting of endogenous TDP-43 in N9 cells, dose response; format: cell-based; settings: 3 μM, 24 hours, Western blot
T3 construct: N9 cells expressing endogenous TDP-43 were treated with various concentrations of B10; endogenous in cells; host or cells: N9 mouse microglial cells
Description: N9 cells were treated with different concentration of B10 for 24 hours and levels of endogenous TDP-43 were determined by Western blotting.
For dose response experiments, N9 cells were treated with different concentrations of B10 for 24 hours. […] An equivalent volume of DMSO was used for control treatments for both sets of experiments. […] Briefly, cells were lysed in Mammalian-Protein Extraction Reagent (M-PER; Pierce, Rockford, Ill.) containing 1× protease inhibitor mixture (Calbiochem, Billerica, Mass.), 1 mM phenylmethylsulfonyl fluoride (PMSF) and 1× phosphatase inhibitor I and II cocktails (Sigma). Protein concentration was determined using the Coomassie (Bradford) Protein Assay Kit (Pierce). Samples were analyzed for Myc and GAPDH by Western blotting. […] Drug treatment experiments were repeated at least two times.

[6] = tested on: FUS (Fused in Sarcoma); assay: Western blotting of endogenous FUS in HEK293 cells; format: cell-based
Description: as §1

[7] = biological target: T4, C25-TDP-43 (Homo sapiens, UniProt Q13148); assay: Fluorescence microscopy of C25-TDP-43 aggregates in head neurons of transgenic C. elegans; format: in vivo; settings: C25 worms
T4 construct: a C. elegans model expressing the C25 fragment; expressed in transfected cells; host or cells: transgenic C. elegans (neurons)
Description: (§2) For in vivo studies the inventors used a C. elegans model expressing the C25 fragment to analyze changes in behavior and pathological TDP-43 upon B10 treatment.
(§3) The Solid Method of drug dosing was used in which age-synchronized C. elegans eggs were plated on Nematode Growth Media (NGM) plates containing DMSO vehicle or 5 μM B10 or 10 μM B10.
(§4) A behavioral assay that measures liquid thrashing ability was used to analyze the effect of B10 treatment on motility in age synchronized C25 animals. For microscopic analysis adult worms were fixed on slide and imaged using fluorescence microscopy.

[8] = biological target: T5, endogenous TDP-43 (Homo sapiens, UniProt Q13148); assay: Western blotting of endogenous TDP-43 in HEK293 cells; format: cell-based; settings: endogenous TDP-43, 3 μM, 24 hours, Western blot
T5 construct: HEK293 cells expressing endogenous TDP-43 and FUS; endogenous in cells; host or cells: HEK293
Description: as §1

[9] = biological target: T6, amyloid beta (Aβ) (Homo sapiens, UniProt P05067); settings: cited from earlier work
T6 construct: the amyloid protein (Aβ) which is a proteolytic product of a precursor protein of much larger size

[10] = dose of about 10 mg/kg, transgenic TDP43 mouse model; cited from earlier work
[11] = tested on: Wnt-β-catenin signaling pathway; settings: B lymphoma cells; cited from earlier work
[12] = tested on: HEK293 cells; format: cell-based; settings: human, 24 h
Description: (§5) Whether B10 treatment causes cytotoxicity was next tested. The inventors performed the LDH assay with N9 and HEK293 cells. […] B10 causes ˜3% and ˜13% cytotoxicity at 3 and 10 μM in the HEK293 cells, respectively (FIG. 5B).
(§6) The LDH assay was performed using the CytoTox 96 Non-Radioactive Cytotoxicity Assay from Promega as per manufacturer's instructions. Briefly, N9 and HEK cells were treated with different concentrations of hexachlorophene for 24 hours. Cells treated with a lethal dose of 150 μM hexachlorophene were used as the maximal LDH release control. Culture supernatant was collected and centrifuged at 2000 rpm to pellet debris. 50 μl of supernatant from each sample was transferred to a flat-bottom 96 well plate. The Substrate Mix provided in the kit was reconstituted with Assay Buffer. 50 μl of the reconstituted Substrate Mix was added to the culture supernatant. The plate was incubated at room temperature, protected from light, for 30 minutes. 50 μl of Stop Solution was added to each well at the end of the incubation period. Absorbance was read at 490 nm. The experiment was performed in triplicate for each cell line. Statistical analysis was performed using Microsoft Excel.

[13] = tested on: N9 cells; format: cell-based; settings: mouse, 24 h
Description: as §5, §6

[14] = tested on: Myc-tagged WT TDP-43, C25 mutant, M337V and Q331K; assay: Western blotting of Myc-tagged WT and mutant TDP-43 transfected in HEK293 cells; format: cell-based; settings: HEK293 cells transfected with Myc-tagged WT, 3 μM, 24 hours
[15] = tested on: primary neuronal cultures; settings: cited from earlier work
[16] = tested on: C25-TDP-43 transgenic C. elegans; assay: Liquid thrashing motility assay in C25-TDP-43 transgenic C. elegans; format: in vivo; settings: C25 worms on NGM plates containing 5 μM or 10 μM B10
Description: as §2, §3, §4

T1 sequence (Q921F2 whole entry): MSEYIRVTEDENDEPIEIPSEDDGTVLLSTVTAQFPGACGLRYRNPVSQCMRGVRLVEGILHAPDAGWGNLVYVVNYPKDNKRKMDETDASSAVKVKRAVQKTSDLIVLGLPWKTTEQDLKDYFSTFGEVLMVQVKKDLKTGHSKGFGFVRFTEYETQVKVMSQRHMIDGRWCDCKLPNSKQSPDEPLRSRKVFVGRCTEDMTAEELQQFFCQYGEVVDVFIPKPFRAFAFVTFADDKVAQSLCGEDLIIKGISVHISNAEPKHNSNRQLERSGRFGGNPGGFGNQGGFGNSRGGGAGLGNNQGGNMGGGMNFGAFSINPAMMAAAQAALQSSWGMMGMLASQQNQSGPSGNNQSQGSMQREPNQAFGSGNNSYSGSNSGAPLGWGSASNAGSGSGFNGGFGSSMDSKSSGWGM
T5 sequence (Q13148 whole entry): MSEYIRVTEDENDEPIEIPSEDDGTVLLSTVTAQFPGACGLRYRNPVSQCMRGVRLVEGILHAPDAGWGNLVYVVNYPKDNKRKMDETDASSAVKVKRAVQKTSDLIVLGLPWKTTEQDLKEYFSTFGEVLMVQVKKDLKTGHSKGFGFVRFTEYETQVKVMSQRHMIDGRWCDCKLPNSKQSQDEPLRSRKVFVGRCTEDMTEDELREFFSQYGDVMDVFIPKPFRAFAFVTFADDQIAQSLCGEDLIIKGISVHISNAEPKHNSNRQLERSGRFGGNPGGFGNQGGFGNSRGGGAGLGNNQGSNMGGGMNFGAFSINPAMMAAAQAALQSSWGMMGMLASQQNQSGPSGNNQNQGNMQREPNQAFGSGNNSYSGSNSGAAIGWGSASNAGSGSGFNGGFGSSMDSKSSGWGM
T3 sequence (Q921F2 whole entry): as the sequence (Q921F2 whole entry) above
T6 sequence (P05067 672-713 limits assumed): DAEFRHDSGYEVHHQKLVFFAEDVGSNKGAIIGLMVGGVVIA
T2 sequence (Q13148 219-414 limits assumed, change not shown): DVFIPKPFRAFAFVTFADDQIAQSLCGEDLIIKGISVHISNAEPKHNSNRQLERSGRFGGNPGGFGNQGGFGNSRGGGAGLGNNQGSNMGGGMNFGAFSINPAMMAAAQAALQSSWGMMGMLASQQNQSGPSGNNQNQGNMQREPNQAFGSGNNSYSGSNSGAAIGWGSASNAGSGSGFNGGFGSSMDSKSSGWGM
T4 sequence (Q13148 219-414 limits assumed): as the sequence (Q13148 219-414 limits assumed, change not shown) above

- % TDP43 level [1]: 103%
SMILES: CO[C@H]1/C=C/O[C@@]2(C)Oc3c(C)c(O)c4c(O)c(c(/C=N/N5CCN(C)CC5)c(O)c4c3C2=O)NC(=O)/C(C)=C\C=C\[C@H](C)[C@H](O)[C@@H](C)[C@@H](O)[C@@H](C)[C@H](OC(C)=O)[C@@H]1C [B6, Rifampicin]

SMILES: CC(C)C[C@@H](C=O)NC(=O)[C@H](CC(C)C)NC(=O)[C@H](CC(C)C)NC(=O)OCc1ccccc1 [MG132] (Cbz-Leu-Leu-Leu-aldehyde)
- levels of ubiquitinated proteins [2]: increase in ubiquitinated proteins

- % TDP43 level [1]: 89%
SMILES: NS(=O)(=O)c1cc2c(cc1C(F)(F)F)NCNS2(=O)=O [B8, Hydroflumethiazide]

- % TDP43 level [1]: 85%
SMILES: OCCN1CCN(CCCN2c3ccccc3Sc3ccc(Cl)cc32)CC1 [B5, Perphenazine]

SMILES: CCOc1ccc2c(c1)C(C)=CC(C)(C)N2 [ethoxyquin]
- protection from toxicity induced by B10 [3]: protects rats from toxicity induced by B10

SMILES: Oc1c(Cl)cc(Cl)c(Cl)c1Cc1c(O)c(Cl)cc(Cl)c1Cl [B10, Hexachlorophene]
- amount of cytoplasmic C25 mutant TDP-43 [4]: decreases the amount of cytoplasmic C25 mutant TDP-43
- reduction of endogenous TDP-43 levels [5]: approximately 50%
- % TDP43 level [1]: 63%
- decrease in levels of TDP-43 compared to the control ([1]; N9 cells, 24 hours): ~40%
- effect on levels of FUS [6]: increases levels of FUS
- increase of FUS levels ([6]; 3 μM, 24 hours, Western blot): ~300%
- accumulation of TDP-43 in neurons in the head region [7]: decreased the accumulation of TDP-43 in the neurons in the head region of C25 worms
- reduction of TDP-43 levels [8]: ~50%
- effect on Aβ fibril formation [9]: inhibit amyloid beta (Aβ) fibril formation
- brain permeability [10]: 50%
- effect on Wnt-β-catenin signaling pathway [11]: inhibit the Wnt-β-catenin signaling pathway in B lymphoma cells
- cytotoxicity (LDH release) ([12]; 3 μM): ~3%
- cytotoxicity (LDH release) ([12]; 10 μM): ~13%
- cytotoxicity (LDH release) ([13]; 3 μM): ~6%
- cytotoxicity (LDH release) ([13]; 10 μM): ~23%
- decrease in levels of TDP-43 and its mutants [14]: approximately 50%
- levels of ubiquitinated proteins [2]: slight increase in ubiquitinated proteins
- protection from Aβ-induced toxicity [15]: protect primary neuronal cultures from Aβ-induced toxicity
- motility (liquid thrashing) [16]: improved motility of C25 worms

SMILES: CCCC(C(=O)OCCN(CC)CC)(c1ccccc1)c1ccccc1.Cl [SKF-525A, 2-diethylaminoethyl-2,2-diphenylvalerate-Hcl]
- protection from toxicity induced by B10 [3]: lessened toxicity

- % TDP43 level [1]: 100%
SMILES: Nc1ccc(S(=O)(=O)c2ccc(N)cc2)cc1 [B7, Dapsone]

SMILES: C[N+](C)(C)C[C@H](O)CC(=O)[O-] [L-carnitine]
- protection from toxicity induced by B10 [3]: protected rats from the toxicity of B10

— US9844519B1, “Method of treating TDP-43 proteinopathies using hexachlorophene” (University of South Florida, priority 2014, dated 2017)
